Legend:
Type in all cases: cell-based
[1] = tested on: NLRP3-dependent release of IL-1β; experiment: LPS/ATP-induced IL-1β release from differentiated THP1 cells overexpressing human THIK-1; conditions: 1 μM, THIK-1 overexpressing THP1 cells
Description: (§1) THP1 cells, obtained from ATCC, are monocytes isolated from peripheral blood of a leukaemia patient. THP1 cells were grown in RPMI 1640 supplemented with 10% fetal bovine serum (FBS, Hyclone), 1% PenStrep (Invitrogen), and 1% GlutaMax (Invitrogen), and 0.05 mM of 2-mercaptoethanol. To overexpress human THIK-1, THP1 cells were differentiated with 100 ng/ml PMA for 24 h prior to transfection with THIK-1 mRNA synthesized as described in the supplementary material. Cell suspensions (2.5 × 10^6 cells in […]) in the presence of 200 μg/ml mRNA were electroporated with the MaxCyte (STX instrument) in an OC-25 MaxCyte Electroporation cassette using manufacturer settings for THP1 cells. Cell suspensions were transferred to a 6-well plate and allowed to recover for 20 min at 37 °C. Cells were seeded into 384-well plates (10,000 cells/well) for thallium flux assays or 96-well plates (50,000 cells/well) for inflammasome assays the following day. Overexpressing and mock-transfected cells were primed with 100 ng/ml of LPS for 3.5 h prior to addition of compounds 30 min before stimulation with 5 mM ATP. Supernatants were collected 2 h after addition of ATP and stored at −20 °C until the detection of IL-1β.
IL-1β from culture supernatants was measured with DuoSet ELISA kit (R&D Systems) following the manufacturer instructions.

THIK-1 [2] = molecular target: T1, THIK-1 (Homo sapiens, UniProt Q9HB14); experiment: FLIPR thallium influx assay, HEK-hTHIK-1 cells; conditions: HEK-hTHIK-1, normalised to TPA controls; read-out: IC50, inhibition of THIK-1 constitutive activity (thallium influx)
T1 construct: expressed in transfected cells
T1 sequence (Q9HB14 1-408): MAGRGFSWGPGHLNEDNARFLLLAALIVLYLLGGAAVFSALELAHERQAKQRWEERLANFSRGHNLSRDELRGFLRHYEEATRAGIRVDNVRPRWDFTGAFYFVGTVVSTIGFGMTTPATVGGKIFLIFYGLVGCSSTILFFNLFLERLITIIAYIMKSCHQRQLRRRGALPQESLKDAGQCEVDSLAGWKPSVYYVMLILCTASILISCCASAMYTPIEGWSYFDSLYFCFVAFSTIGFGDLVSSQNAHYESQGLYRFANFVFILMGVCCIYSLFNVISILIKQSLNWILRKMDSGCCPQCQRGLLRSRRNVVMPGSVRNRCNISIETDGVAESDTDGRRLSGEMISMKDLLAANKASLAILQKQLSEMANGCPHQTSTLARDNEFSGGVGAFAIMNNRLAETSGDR
Description: HEK-293 cells were transfected with human THIK-1, TREK-1, TWIK-2, or mouse THIK-1 cDNA cloned into pcDNA3.1, using either Fugene HD transfection reagent (Promega) or electroporation (MaxCyte STX instrument). Cells stably expressing the relevant genes were selected based on resistance to 500 μg/ml geneticin (Gibco). For human THIK-1 and TWIK-2 expressing cells, monoclonal lines were isolated by limited dilution cloning; mouse THIK-1 and human TREK-1 expressing cells were maintained as polyclonal pools. The HEK-293 pools and monoclones stably expressing the relevant genes were maintained in DMEM (Life Technologies), supplemented with 10% FCIII (HyClone, Fetal clone III) and 500 μg/ml geneticin. A CHO-Kv2.1 cell line was purchased from Millipore (accession NM_004975) and maintained in F12 (Life Technologies), supplemented with 10% FCSIII (Thermo Scientific) and 500 μg/ml geneticin (Life Technologies). For thallium flux assays, banks of frozen cell aliquots were prepared the day prior to assay, cells were thawed into media and seeded into PDL coated 384-well plates (Corning) at 25,000 (human/mouse THIK-1, TREK-1) or 30,000 (TWIK-2) cells/well (25 μl/well). CHO-Kv2.1 cells were seeded into non-PDL coated plates (Corning) at 5000 cells/well. Plated cells were incubated overnight at 37 °C, 5% CO2 in a humidified atmosphere. For Q-Patch assays, cells were cultured for 7 days prior to assay, dissociated, and diluted to 1–2.5 million/ml in EX-CELL ACF serum free media containing HEPES (25 mM; Life Technologies), penicillin/streptomycin (100 U/ml, 100 μg/ml; Life Technologies) and a trypsin inhibitor (0.04 mg/ml).
A fluorescence-based thallium influx assay (Molecular Devices potassium assay kit) was used to monitor channel activity. In brief, component A was reconstituted in 17 ml of chloride-free assay buffer (130 mM sodium D-gluconate, 5 mM potassium D-gluconate, 2 mM calcium D-gluconate, 1 mM magnesium D-gluconate, 5 mM NaHCO3, 20 mM HEPES; pH adjusted to 7.4 with NaOH and filtered (0.45 μm filter)) and component C reconstituted in 30 μl of DMSO. Components A and C were combined, and probenecid was added (Life Technologies; final assay concentration (FAC) 4.75 mM for HEK cell lines and 2.47 mM for CHO-Kv2.1) to provide the final dye solution. Media was removed from the cell plates and replaced with dye (20 μl/well) and the plates were incubated at room temperature in the dark for 60 min. On the day of the assay, a diluted compound plate (3x FAC in 1.5% DMSO) was created. Control wells contained either DMSO vehicle (1.5%, 3x FAC) or tetrapentylammonium chloride (TPA; Sigma, 258962; 1.5 mM in 1.5% DMSO, 3x FAC). A 3x thallium stimulation plate was also prepared, to provide a FAC of either 1 mM (human THIK-1) or 3 mM (mouse THIK-1, TREK-1, TWIK-2) thallium sulphate (in assay buffer). For Kv2.1, the FAC of thallium sulphate was 2.6 mM and this was prepared in assay buffer containing potassium sulphate (Sigma P9458; FAC 23.3 mM). Following 60 min of dye loading, 10 μl from the 3x FAC compound plate was added into the cell plate, which was then incubated for 15 min at room temperature in the dark. Using a fluorescent imaging plate reader (FLIPR) tetra plate reader, 15 μl thallium stimulus solution was added to the cell plate and the fluorescence signal recorded every second for 1 min (excitation: 470–495 nm, emission: 515–575 nm).

THIK-1 [3] = molecular target: T1, THIK-1; experiment: Thallium influx in human THIK-1 overexpressing differentiated THP1 cells; conditions: THIK-1 mRNA-transfected differentiated THP1 cells; read-out: IC50, block of thallium influx
Description: as §1, with “Overexpressing and mock-transfected cells were primed with 100 ng/ml of LPS for 3.5 h prior to addition of compounds 30 min before stimulation with 5 mM ATP. Supernatants were collected 2 h after addition of ATP and stored at −20 °C until the detection of IL-1β.” left out
A fluorescence-based thallium influx assay (Molecular Devices potassium assay kit) was used to monitor channel activity. […] Using a fluorescent imaging plate reader (FLIPR) tetra plate reader, 15 μl thallium stimulus solution was added to the cell plate and the fluorescence signal recorded every second for 1 min (excitation: 470–495 nm, emission: 515–575 nm).

SMILES | effect on ATP-stimulated IL-1β release [1] | IC50 (THIK-1 [2]) [µM] | IC50 (THIK-1 [3]) [µM]
CC(C)(O)c1coc(S(=O)(=O)NC(=O)Nc2c3c(cc4c2CCC4)CCC3)c1 [MCC950, reference compound] | completely blocked |  | 
CCCCC[N+](CCCCC)(CCCCC)CCCCC [TPA, tetrapentylammonium chloride, reference compound] |  | 4.7 | 6.8

From article PMC9841576, “Characterisation of C101248: A novel selective THIK-1 channel inhibitor for the modulation of microglial NLRP3-inflammasome” (Neuropharmacology, 2023)
